Data: US5800838A, “Composition that inhibits or destroys at least one unicellular living organism containing fluorine F- and Lithium li+” (priority 1987, dated 1998)
Read-outs that look alike come from different tables or passages of the source.

Assays:
[1] = tested on: Pseudomonas aeruginosa CNCM A 22; settings: cited from earlier work
[2] = tested on: Gardenerella vaginalis; assay: MIC on hospital strains (Example 13); format: cell-based; settings: read-out: MIC of benzalkonium chloride
Experimental: (§1) The same trials as in example 12 were carried out on hospital strains of various microorganisms.

[3] = tested on: Aspergillus niger; assay: MIC on hospital strains (Example 13); format: cell-based; settings: read-out: MIC of benzalkonium chloride
Experimental: as §1

[4] = tested on: Staphylococcus aureus; assay: MIC on hospital strains (Example 13); format: cell-based; settings: read-out: MIC of benzalkonium chloride
Experimental: as §1

[5] = tested on: Bacillus subtilis; assay: MIC on hospital strains (Example 13); format: cell-based; settings: read-out: MIC of benzalkonium chloride
Experimental: as §1

[6] = tested on: Trichomonas vaginalis; assay: MIC on hospital strains (Example 13); format: cell-based; settings: read-out: MIC of benzalkonium chloride
Experimental: as §1

[7] = tested on: Ducrey's bacillus; assay: MIC on hospital strains (Example 13); format: cell-based; settings: read-out: MIC of benzalkonium chloride
Experimental: as §1

[8] = tested on: Candida albicans; assay: MIC on hospital strains (Example 13); format: cell-based; settings: read-out: MIC of benzalkonium chloride
Experimental: as §1

[9] = tested on: Staphylococcus aureus Oxford strain CNCM 53 154; settings: cited from earlier work
[10] = tested on: spermatozoa; assay: SANDERS-CRAMER total spermicidal test according to IPPF standards; format: cell-based; settings: with 1 ml solution containing 0.0001% lithium fluoride; in the initial 1 millilitre
[11] = tested on: Aspergillus niger; assay: MIC on hospital strains of Aspergillus niger; format: cell-based; settings: read-out: MIC of the primary active principle
From the text: (§2) The methodology employed is that described by Professor F. CATALAN, P. SEDNAOUI, A. MILOVANOVIC et al., Institut A. FOURNIER, PARIS.
With the same methodology, the following results were observed on hospital strains of Aspergillus niger: […]

[12] = tested on: Gardnerella vaginalis; assay: Contact methodology AFNOR standard I 72-151, strains surviving (second trial); format: cell-based; settings: 15-min contact, NaF or LiF 1 mg/l where added
Experimental: The second trial carried out was performed according to the contact methodology described in AFNOR standard I 72-151, by counting the strains surviving after a 15-min active substance/microbacterial solution contact followed by a filtration on a membrane (porosity 0.22 μm).
In this trial, 26 wild-type strains of Gardnerella vaginalis were tested, originating from hospital sources. The starting solution contained 0.1% of benzalkonium chloride, and was then diluted to 10^-1, 10^-2, 10^-3 and 10^-4. The results are summarized in the table below, which gives the total number of strains surviving (out of the 26 tested) in terms of the dilution.

[13] = tested on: Trichomonas vaginalis; assay: Number of strains inhibited / MIC, same methodology as example 4; format: cell-based; settings: for MIC: Trichomonas vaginalis
Experimental: In the first trial, the sample of bactericidal substance was incorporated directly in the specific culture edium of the microorganism. A concentration series of the bactericidal substance was prepared in the geometric ratio of 2, from 400 μg/ml to 1.56 μg/ml. The cell concentration used in the seeding of the Petri dishes was […]. A 24-hour incubation was performed at 37° C. and then, for each wild-type strain tested, the concentration of primary principle destroying all the microorganisms (see method of Professor F. CATALAN et al., Institut A. FOURNIER, PARIS) was determined. The trail was performed on 32 wild-type strains of Gardnerella vaginalis originating from hospital sources and with benzalkonium chloride and then nonoxinol 9 as active principles, and with sodium fluoride NaF at a concentration of 1 mg/l and then lithium fluoride LiF at a concentration of 1 mg/l as activating principles.
The same methodology as in example 4 was used on 15 strains of Trichomonas vaginalis.

[14] = tested on: Candida albicans; assay: MIC on hospital strains of Candida albicans; format: cell-based; settings: read-out: MIC of the primary active principle
Experimental: as §2
With the same methodology, trials were performed on hospital strains of Candida albicans: […]

[15] = tested on: Streptococcus; assay: MIC on wild-type hospital strains (Example 6); format: cell-based; settings: 6 strains
Experimental: (§3) The MIC of benzalkonium chloride, alone and in the presence of LiF at a concentration of 1 mg/l, was determined with respect to other wild-type strains originating from hospital sources namely Streptococcus (6 strains). Staphylococcus aureus (8 strains). Salmonella typhimurium (3 strains) and Sarcina lutea (1 strain).

[16] = tested on: Sarcina lutea; assay: MIC on wild-type hospital strains (Example 6); format: cell-based; settings: Micrococcus luteus, 1 strain
Experimental: as §3

[17] = tested on: Salmonella typhimurium; assay: MIC on wild-type hospital strains (Example 6); format: cell-based; settings: Salmonella enterica, 3 strains
Experimental: as §3

[18] = tested on: Staphylococcus aureus; assay: MIC on wild-type hospital strains (Example 6); format: cell-based; settings: in the presence of LiF at 1 mg/l, 8 strains
Experimental: as §3

[19] = tested on: Streptococcus faecalis CNCM 5 855; settings: cited from earlier work
[20] = tested on: Haemophilus influenzae; assay: MIC on hospital strains of pyogenic microorganisms; format: cell-based; settings: read-out: MIC of the primary active principle
From the text: as §2
(§4) With the same methodology, the following results were observed on hospital strains of pyogenic microorganisms, namely […] streptococcus, Proteus vulgaris, Haemophilus influenzae: […]

[21] = tested on: Proteus vulgaris; assay: MIC on hospital strains of pyogenic microorganisms; format: cell-based; settings: read-out: MIC of the primary active principle
From the text: as §2, §4

[22] = tested on: β-Haemolytic streptococcus; assay: MIC on hospital strains of pyogenic microorganisms; format: cell-based; settings: read-out: MIC of the primary active principle
From the text: as §2, §4

[23] = tested on: Chlamydia trachomatis; assay: MIC on Chlamydia trachomatis strains; format: cell-based; settings: listed test strain, read-out: MIC of benzalkonium chloride
Experimental: The test was performed on 12 strains of Chlamydia trachomatis originating from hospital sources, in particular from cases of urethritis. All the trials were performed in duplicate, and the results compared with those for a listed control strain.
The MIC corresponds to the concentration of benzalkonium chloride at and above which the average number of colonies in Petri dishes containing the active substance is less than one tenth of the average number of colonies in Petri dishes without active substance.

[24] = in the presence of NaF at 1 mg/l
[25] = in the presence of LiF at 1 ppm
[26] = in the presence of LiF at 0.96 mg/l
[27] = in the presence of LiF at 1 mg/l
[28] = in the presence of LiF at 1 mg/l and of KATHON CG preservative at 0.4 mg/l

CCCCCCCCCCCCCC[N+](C)(C)Cc1ccccc1.[Cl-] [benzalkonium chloride, myristyldimethylbenzylammonium chloride]
MIC of benzalkonium chloride ([1]; alone): 31.25 µg/mL | MIC of benzalkonium chloride [1, 24]: 18 µg/mL | MIC ([2]; alone): 50 µg/mL | MIC [2, 25]: 41 µg/mL | MIC ([3]; alone): 85 µg/mL | MIC [3, 25]: 80 µg/mL | MIC ([4]; alone): 1.56 µg/mL | MIC [4, 25]: 1 µg/mL | MIC ([5]; alone): 8 µg/mL | MIC [5, 25]: 5.4 µg/mL | MIC ([6]; alone): 1.3 µg/mL | MIC [6, 25]: 0.9 µg/mL | MIC ([7]; alone): 75 µg/mL | MIC [7, 25]: 62 µg/mL | MIC ([8]; alone): 50 µg/mL | MIC [8, 25]: 35 µg/mL | MIC of benzalkonium chloride ([9]; alone): 1.56 µg/mL | MIC of benzalkonium chloride [9, 24]: 1.1 µg/mL | MIC of benzalkonium chloride [10]: 0.0009% | MIC ([11]; alone): 50 µg/mL | MIC ([11]; in the presence of LiF at 0.96 mg/l and of KATHON CG preservative at 0.234 mg/l): 100 µg/mL | MIC [11, 26]: 135 µg/mL | total number of strains surviving (out of the 26 tested) ([12]; 0.1% solution diluted 10^-1): 0 | total number of strains surviving (out of the 26 tested) ([12]; 0.1% solution diluted 10^-2): 18 | total number of strains surviving (out of the 26 tested) ([12]; 0.1% solution diluted 10^-3): 22 | total number of strains surviving (out of the 26 tested) ([12]; 0.1% solution diluted 10^-4): 26 | MIC ([13]; alone): 25 µg/mL | MIC ([13]; in the presence of LiF): 6.25 µg/mL | number of strains inhibited out of the 15 tested ([13]; benzalkonium chloride 1.56 mg/l, LiF 1 mg/l where added): 1 | number of strains inhibited out of the 15 tested ([13]; benzalkonium chloride 3.125 mg/l, LiF 1 mg/l where added): 3 | number of strains inhibited out of the 15 tested ([13]; benzalkonium chloride 6.25 mg/l, LiF 1 mg/l where added): 9 | number of strains inhibited out of the 15 tested ([13]; benzalkonium chloride 12.5 mg/l): 13 | number of strains inhibited out of the 15 tested ([13]; benzalkonium chloride 25 mg/l): 15 | MIC ([14]; alone): 50 µg/mL | MIC ([14]; in the presence of LiF at 0.96 mg/l and of KATHON CG preservative at 0.234/mgl): 2 µg/mL | MIC [14, 26]: 135 µg/mL | MIC ([15]; alone): 18 to 20 µg/mL | MIC [15, 27]: 10 µg/mL | MIC ([16]; alone): 15 µg/mL | MIC [16, 27]: 11 µg/mL | MIC ([17]; alone): 17 µg/mL | MIC [17, 27]: 12 µg/mL | MIC [18]: 0.3 µg/mL | MIC of benzalkonium chloride ([19]; alone): 4 µg/mL | MIC of benzalkonium chloride [19, 24]: 3.6 µg/mL | MIC ([20]; alone): 200 µg/mL | MIC [20, 28]: 150 µg/mL | MIC ([21]; alone): 25 µg/mL | MIC [21, 28]: 18.5 µg/mL | MIC ([22]; alone): 50 µg/mL | MIC [22, 28]: 25 µg/mL | MIC ([23]; 1 mg/ml added (lithium fluoride)): 13 µg/mL | MIC ([23]; alone): 18 µg/mL
